From publication PMC10439028, “SGLT5 is the renal transporter for 1,5-anhydroglucitol, a major player in two rare forms of neutropenia” (Cellular and Molecular Life Sciences: CMLS, 2023)

Target: T1, mouse SGLT4 (Mus musculus, UniProt Q8VDT1)
T1 construct: expressed in transfected cells; host or cells: HEK293T
T1 sequence (Q8VDT1 1-685): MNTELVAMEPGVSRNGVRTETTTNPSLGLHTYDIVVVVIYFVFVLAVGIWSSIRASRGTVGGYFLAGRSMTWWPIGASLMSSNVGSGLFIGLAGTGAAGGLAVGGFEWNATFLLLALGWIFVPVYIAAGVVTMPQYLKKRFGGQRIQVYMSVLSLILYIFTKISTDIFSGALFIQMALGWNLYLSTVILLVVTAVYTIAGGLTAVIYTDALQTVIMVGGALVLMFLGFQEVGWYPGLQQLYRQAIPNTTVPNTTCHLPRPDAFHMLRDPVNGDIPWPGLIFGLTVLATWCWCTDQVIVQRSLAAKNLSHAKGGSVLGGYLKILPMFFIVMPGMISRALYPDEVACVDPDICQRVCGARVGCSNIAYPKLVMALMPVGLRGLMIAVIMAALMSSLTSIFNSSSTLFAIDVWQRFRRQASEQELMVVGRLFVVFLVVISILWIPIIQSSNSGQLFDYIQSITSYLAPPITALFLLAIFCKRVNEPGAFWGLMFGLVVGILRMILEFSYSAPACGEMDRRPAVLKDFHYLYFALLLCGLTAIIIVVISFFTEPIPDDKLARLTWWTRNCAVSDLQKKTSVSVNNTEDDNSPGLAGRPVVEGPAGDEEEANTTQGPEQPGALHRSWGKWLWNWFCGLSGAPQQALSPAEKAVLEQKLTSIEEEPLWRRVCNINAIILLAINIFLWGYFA
Experiment: Radioactive uptake assay (saturation kinetics) in HEK293T cells expressing mouse SGLT4
Type: cell-based
Protocol: For a typical transporter experiment we proceeded as follows. […] To minimize cell loss during the various washing steps in the radioactive uptake experiments, the wells where the cells were seeded were previously coated with poly- D-lysine, which improved their adhesion to the plastic surface of the wells. For this, each well of the 24-well plates was treated with 200 µl of a 0.01% poly-L-lysine solution for 10 min, washed 3 times with 1 ml of sterilized water and left to dry for 2 h. Only then could the 24-well plates be seeded with the appropriate cell lines and cultured overnight at 37 °C in 5% CO2.
On day two, the radioactive uptake assay could be performed. The cell culture media was removed by aspiration and cells were incubated for 20 min at 37 °C and 5% CO2 with a basal medium (10 mM HEPES, pH 7.4, 1 mM CaCl2, 1 mM MgCl2, 2 mM KCl) containing 140 mM choline chloride to deplete intracellular […] ions. This was subsequently replaced with the uptake medium (basal medium + 140 mM NaCl, 25 μM cytochalasin B, 1 mg/ml BSA) containing either radioactive U-[^14C]-mannose (15,000 cpm/well) or 2-[^3H]-1,5-AG (30,000 cpm/well) and respectively, non-radioactive mannose or 1,5-AG, at the required concentration in the experiment. Importantly, when measuring the transport of mannose, the uptake media also contained 0.5 mM glucose. This resulted from the need to reduce the background transport of mannose in control HEK293T cells in order to optimize the transport assay for this sugar in our model cell lines. Consequently, after testing various inhibitors (Supplementary Fig. 1), 0.5 mM glucose + 25 µM cytochalasin B appeared as the best combination to decrease efficiently the endogenous transport of mannose in control cells without affecting the transport of mannose in model cell lines overexpressing SGLT4 and SGLT5. […]
Once the uptake medium was added to the cells, the plates were incubated at 37 °C in 5% CO2 during the required time. […] In each experiment, the transport activities were calculated after subtracting a “blank” value, corresponding to the radioactivity in the appropriate control cells (HEK293T cells that were stably or transiently transfected with one of the parent plasmids pEF6/MycHisA, pEF6HisB, pUB82 or pUB83 with no inserted cDNA) that were analyzed in parallel. […]
Supplementary Fig. 4: Transport activities for 1,5-anhydroglucitol and mannose of recombinant mouse SGLT4 and SGLT5 isoforms measured in HEK293T cells.
Transport was measured in 24 well plates with 0.6x10^6 cells during 30 mins at 37°C in 5% CO2 in the presence of the indicated concentrations of 2-[1H+3H]-1,5-AG for both mSGLT4 (A) and mSGLT5 (B) and U-[12C+14C]-mannose (C) for mSGLT4. […]

Compound | mSGLT4 Vmax (30 min, Supplementary Fig. 4) | Km (30 min, Supplementary Fig. 4, read-out: mSGLT4 Km) | Km of mouse SGLT4 lower for mannose than for 1,5-AG (mannose versus 1,5-AG)
OC[C@H]1OC[C@H](O)[C@@H](O)[C@@H]1O [1,5-AG, 1,5-anhydroglucitol] | 152 pmol/min/100 000 cells | > 5 mM | –
OC[C@H]1OC(O)[C@@H](O)[C@@H](O)[C@@H]1O (stereo partly shown) [Mannose, mannose] | 29 pmol/min/100 000 cells | – | 25 fold
